Test system: luteinizing hormone (LH) content in plasma
Test: Luteinizing hormone (LH) content in plasma of bilateral ovariectomy (OVX) rats
Format: in vivo
Conditions: oral 30 mg/kg, plasma LH 0-8 h
Text: Test Example 5. Effect of the Compounds of the Present Invention on Luteindzing Hormone (LH) Content in Plasma of Bilateral Ovariectomy (OVX) Rats
The objective of this test example was to determine the effect of the compounds on luteinizing hormone (LH) in plasma of bilateral ovarnectomy (OVX) rats.
10-Week-old female bilateral ovariectomy SD rats were purchased from Beijing Vital River Laboratory Animal Technology Co., Ltd. The animals were housed in a SPF grade animal facility with 5 SD rats per cage. The cages, bedding, feed and water were disinfected at high temperatures before use. All animals had free access to food and water.
Drug administration by groups: 10-Week-old female SD rats were subjected to bilateral ovariectomy and used in experiments after 3 weeks. Each SD rat was fasted overnight before the experiment, and then randomly divided into groups (3 rats per group) before the drug administration. Different test compounds were administered orally to each drug administration group at a dose of 30 mg/kg and a volume of 10 mL/kg.
Sample collection: 0.2-0.3 mL of whole blood of the SD rats in each group was collected at 0, 0.5, 1, 2, 4, 8 hours before and after the drug administration, and placed in EDTA-K2 tubes. The tubes were inverted and mixed well, and centrifuged at 4° C. at 5,000 rpm for 5 min. Then the plasma was separated and stored in an ultra-low temperature freezer (−80±10° C.).
Sample detection: All reagents, samples and ELISA plates were equilibrated at room temperature (20-25° C.) for at least 30 min. The sample was thawed, vortexed and centrifuged for use. The standard curve was prepared with Assay buffer C according to the concentration sequence of 10, 5, 2.5, 1.25, 0.625, 0.313 and 0. The sample was diluted by two folds with Sample dilution buffer G and left to stand at room temperature for 10 min. […] The OD values of each well was read at a wavelength of 450 nm with a microplate reader.
The standard curve was plotted by using Graphpad, and the concentration of the sample was calculated. […]

C[C@@H]1c2nnc(-c3nc4cnc(Cl)cc4s3)n2CCN1C(=O)c1ccc(F)cc1 [Example 37, (R)-(3-(6-Chlorothiazolo[4,5-c]pyridin-2-yl)-8-methyl-5,6-dihydro-[1,2,4]triazolo[4,3-a]pyrazin-7(8H)-yl)(4-fluorophenyl)methanone]
ΣAUC(ΔLH/LH · h, Mean ± SD): −0.52 ± 2.24 ΔLH/LH · h
